Experimental data: patent US20180037595A1, “BENZOXABOROLE COMPOUNDS AND USES THEREOF” (GLAXOSMITHKLINE INTELLECTUAL PROPERTY (NO.2) LIMITED, priority 2015, published 2018)

Test system: M. tuberculosis clinical isolates
Assay: MIC against clinical strains (BACTEC MGIT 960 System)
Format: cell-based
Details: Mycobacterium tuberculosis

Row | SMILES | MIC (strain 330, resistant clinical isolate, resistance HSR (Tables 2B, 2D)) [µM] | MIC (against 85 of the 96 clinical isolate strains tested (sensitive and resistant)) [µM]
1 | Cl.NC[C@H]1OB2OCCOc3ccc(Cl)c1c32 [Example 4, (S)-(3-chloro-7,8-dihydro-2H-1,6,9-trioxa-9a-borabenzo[cd]azulen-2-yl)methanamine hydrochloride] | 0.08 | 
2 | NC[C@H]1OB2OCCOc3ccc(Cl)c1c32 [Example G4-CI] |  | < 0.1
